The test system of test [1] is HCV RNA replicon ET (luc ubi neo/ET). Description: HCV RNA replicon luciferase assay in human hepatoma cell line ET. It is filed as cell-based. The conditions noted are these: Hepatitis C virus, 72 hours, read-out: EC50, effective concentration that reduced viral replication by 50% (HCV RNA replicon derived LUC activity). Here is the method: Representative compounds of the present invention were tested for activity against HCV using the methods adapted from those described by Kriger et al., 2001, Journal of Virology 75:4614-4624, Pietschmann et al., 2002, Journal of Virology, 76:4008-4021, and using HCV RNA constructs as described in U.S. Pat. No. 6,630,343. Compounds were examined in the human hepatoma cell line ET (lub ubi neo/ET), a HCV RNA replicon containing a stable luciferase (LUC) reporter. The HCV RNA replicon ET contains the 5′ end of HCV (with the HCV Internal Ribosome Entry Site (IRES) and the first few amino acids of the HCV core protein) which drives the production of a firefly luciferase (LUC), ubiquitin, and neomycin phosphotransferase (NeoR) fusion protein. Ubiquitin cleavage releases the LUC and NeoR proteins. The EMCV IRES element controls the translation of the HCV […] NS3-NS5. The NS3 protein cleaves the HCV polyprotein to release the mature NS3, NS4A, NS4B, NS5A and NS5B proteins that are required for HCV replication. At the 3′ end of the replicon is the authentic 3′ NTR of HCV. The activity of the LUC reporter is directly proportional to HCV replication levels and positive-control antiviral compounds produce a reproducible antiviral response using the LUC endpoint.
The compounds were dissolved in DMSO at five half-log concentrations each, ranging from either 0.03 to 3 μM or 1 to 100 μM. Subconfluent cultures of the ET line were plated out into 96 well plates dedicated for the analysis of cell numbers (cytotoxicity) or antiviral activity and the next day the compounds were added to the appropriate wells. […] Compound EC50 and EC90 values were derived from HCV RNA levels assessed as HCV RNA replicon derived LUC activity. Cytotoxicity was expressed as IC50 and IC90, the concentration of compound that inhibited cell viability by 50% and 90%, respectively. Compound IC50 and IC90 values were calculated using a colorimetric assay as an indication of cell numbers and cytotoxicity. The activity of the LUC reporter is directly proportional to HCV RNA levels in the human cell line. The HCV-replicon assay was validated in parallel experiments using interferon-alpha-2b as a positive control. Cyclosporine was also tested by way of comparison.
For orientation: A replicon is a self-replicating genome or part of one, used to study replication in cells.

Test [2] has as its target cyclophilin D (Homo sapiens, UniProt P30405). Description: Cyclophilin binding competitive ELISA (cyclophilin D). The note with it: human recombinant cyclophilin, read-out: EC50, concentration required to achieve 50% inhibition, against cyclophilin D. On the procedure:
(§1) The cyclophilin inhibition binding of compounds disclosed herein is determined using a competitive ELISA adapted from the methods described by Quesniaux et al. (Eur. J. Immunol., 1987, 17:1359-1365). Activated ester of succinyl spacers bound to D-Lys^8-cyclosporine A (D-Lys^8-Cs) are coupled to bovine serum albumin (BSA) through D-lysyl residue in position 8. BSA is dissolved in 0.1 M borate buffer, pH 9.0 (4 mg in 1.4 ml). A hundredfold molar excess of D-Lys^8-Cs dissolved in dimethyl formamide (0.6 ml) is added drop wise to the BSA under vigorous stirring.
(§2) Microtiter Plates are coated with D-Lys^8-Cs-BSA conjugate (2 μg/ml in PBS for 24 hours at 4° C.). Plates are washed with Tween®/PBS and with PBS alone. To block nonspecific binding, 2% BSA/PBS (pH 7.4) is added to the wells and allowed to incubate for 2 hours at 37° C. […] Cyclophilin is detected with anti-cyclophilin rabbit antiserum diluted in 1% BSA containing PBS and incubates overnight at 4° C. […] Bound rabbit antibodies are then detected by goat anti-rabbit IgG conjugated to alkaline phosphatase diluted in 1% BSA-PBS and allowed to incubate for 2 hours at 37° C. […] After incubation with 4-nitrophenyl phosphate (1 g/l in diethanolamine buffer, pH 9.8) for 1 to 2 hours at 37° C., the enzymatic reaction is measured spectrophotometrically at 405 nm using a spectrophotometer. […]
For orientation: An ELISA detects its analyte on a solid surface through an enzyme-linked reagent.

For test [3], the target named is cyclophilin B (Homo sapiens, UniProt P23284). Description: Cyclophilin binding competitive ELISA (cyclophilin B). The note with it: human recombinant cyclophilin, read-out: EC50, concentration required to achieve 50% inhibition, against cyclophilin B. Here is the method:
as §1, §2

Test [4] has as its target cyclophilin A (Homo sapiens, UniProt P62937). Description: Cyclophilin binding competitive ELISA (cyclophilin A). The conditions noted are these: human recombinant cyclophilin, read-out: EC50, concentration required to achieve 50% inhibition, against cyclophilin A. Here is the method: as §1, §2

Chain of cyclophilin D (P30405 30-207): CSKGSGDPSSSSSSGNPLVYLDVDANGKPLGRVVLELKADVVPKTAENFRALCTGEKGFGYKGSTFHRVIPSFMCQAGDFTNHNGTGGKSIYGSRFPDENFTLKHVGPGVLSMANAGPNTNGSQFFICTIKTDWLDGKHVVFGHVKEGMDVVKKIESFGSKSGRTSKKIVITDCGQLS
Chain of cyclophilin B (P23284 34-216): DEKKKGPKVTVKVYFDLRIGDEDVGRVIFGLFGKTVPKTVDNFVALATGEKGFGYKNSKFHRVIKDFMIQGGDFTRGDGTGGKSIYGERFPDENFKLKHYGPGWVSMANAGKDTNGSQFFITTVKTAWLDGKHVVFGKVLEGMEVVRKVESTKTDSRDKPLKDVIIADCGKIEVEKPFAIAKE
Chain of cyclophilin A (P62937 whole entry): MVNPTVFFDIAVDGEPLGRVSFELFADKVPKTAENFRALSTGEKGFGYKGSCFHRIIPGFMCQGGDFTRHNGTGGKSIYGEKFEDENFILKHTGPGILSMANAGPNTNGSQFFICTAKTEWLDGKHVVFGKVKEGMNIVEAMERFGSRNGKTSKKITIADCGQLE

For `C/C=C/C[C@@H](C)[C@@H](O)[C@H]1C(=O)N[C@@H](CC)C(=O)N(C)C(SC)C(=O)N(C)[C@@H](CC(C)C)C(=O)N(Cc2ccccc2)[C@@H](C(C)C)C(=O)N(C)[C@@H](CC(C)C)C(=O)N[C@@H](C)C(=O)N[C@H](C)C(=O)N(C)[C@@H](CC(C)C)C(=O)N(C)[C@@H](CC(C)C)C(=O)N(C)[C@@H](C(C)C)C(=O)N1C` (some centres unmarked) [Compound 4, [Methylthio-Sar]^3-(N-benzyl)-Val^5-cyclosporine A], the values for the EC50 in test [1] and in test [2] were below 1000 nM and above 600 nM, respectively.
Consider `CC=CCC(C)C(O)C1C(=O)NC(CC)C(=O)N(C)C(SCCC)C(=O)N(C)C(CC(C)C)C(=O)N(Cc2ccccc2)C(C(C)C)C(=O)N(C)C(CC(C)C)C(=O)NC(C)C(=O)NC(C)C(=O)N(C)C(CC(C)C)C(=O)N(C)C(CC(C)C)C(=O)N(C)C(C(C)C)C(=O)N1C` (centres unmarked) [Compound 5, [n-Propylthio-Sar]^3-(N-benzyl)-Val^5-cyclosporine A], for which the EC50 in test [1] was above 1000 nM; in test [2], above 600 nM; in test [3], above 600 nM; in test [4], above 600 nM.
On to `CC=CCC(C)C(O)C1C(=O)NC(CC)C(=O)N(C)C(OC)C(=O)N(C)C(CC(C)C)C(=O)N(CC=C(C)C)C(C(C)C)C(=O)N(C)C(CC(C)C)C(=O)NC(C)C(=O)NC(C)C(=O)N(C)C(CC(C)C)C(=O)N(C)C(CC(C)C)C(=O)N(C)C(C(C)C)C(=O)N1C` (centres unmarked) [Compound 10, [Methoxy-Sar]^3-(N-3-methyl-but-2-enyl)-Val^5-cyclosporine A], for which the EC50 in test [1] is below 1000 nM.
On to `C=CCN1C(=O)C(CC(C)C)N(C)C(=O)C(OC)N(C)C(=O)C(CC)NC(=O)C(C(O)C(C)CC=CC)N(C)C(=O)C(C(C)C)N(C)C(=O)C(CC(C)C)N(C)C(=O)C(CC(C)C)N(C)C(=O)C(C)NC(=O)C(C)NC(=O)C(CC(C)C)N(C)C(=O)C1C(C)C` (centres unmarked) [Compound 8, [Methoxy-Sar]^3-(N-allyl)-Val^5-cyclosporine A], for which, in test [1], the EC50 is below 1000 nM.
On the same count and under the same terms, to `CC=CCC(C)C(O)C1C(=O)NC(CC)C(=O)N(C)C(OC)C(=O)N(C)C(CC(C)C)C(=O)N(CC=CCOCc2ccccc2)C(C(C)C)C(=O)N(C)C(CC(C)C)C(=O)NC(C)C(=O)NC(C)C(=O)N(C)C(CC(C)C)C(=O)N(C)C(CC(C)C)C(=O)N(C)C(C(C)C)C(=O)N1C` (stereo not drawn) [Compound 11, [Methoxy-Sar]^3-N-(trans-4-benzyloxy-but-2-enyl)-Val^5-cyclosporine A] belongs below 1000 nM.
As to `CC=CCC(C)C(O)C1C(=O)NC(CC)C(=O)N(C)C(SC)C(=O)N(C)C(CC(C)C)C(=O)N(CC=CCN(C)C)C(C(C)C)C(=O)N(C)C(CC(C)C)C(=O)NC(C)C(=O)NC(C)C(=O)N(C)C(CC(C)C)C(=O)N(C)C(CC(C)C)C(=O)N(C)C(C(C)C)C(=O)N1C` (stereo not drawn) [Compound 16, [Methylthio-Sar]^3-N-[trans-4-dimethylamino-but-2-enyl]-Val^5-cyclosporine A], in test [1], the EC50 is below 1000 nM.
Take `CC=CCC(C)C(O)C1C(=O)NC(CC)C(=O)N(C)C(OC)C(=O)N(C)C(CC(C)C)C(=O)N(Cc2cccc(C(F)(F)F)c2)C(C(C)C)C(=O)N(C)C(CC(C)C)C(=O)NC(C)C(=O)NC(C)C(=O)N(C)C(CC(C)C)C(=O)N(C)C(CC(C)C)C(=O)N(C)C(C(C)C)C(=O)N1C` (centres unmarked) [Compound 7, [Methoxy-Sar]^3-(3-trifluoromethylbenzyl)-Val^5-cyclosporine A]: in test [1], the EC50 was below 1000 nM.
Still for that read-out and setting: to `CC=CCC(C)C(O)C1C(=O)NC(CC)C(=O)N(C)C(OC)C(=O)N(C)C(CC(C)C)C(=O)N(Cc2ccccc2)C(C(C)C)C(=O)N(C)C(CC(C)C)C(=O)NC(C)C(=O)NC(C)C(=O)N(C)C(CC(C)C)C(=O)N(C)C(CC(C)C)C(=O)N(C)C(C(C)C)C(=O)N1C` (centres unmarked) [Compound 6, [Methoxy-Sar]^3-(N-benzyl)-Val^5-cyclosporine A] belongs below 1000 nM; to `CC=CCC(C)C(O)C1C(=O)NC(CC)C(=O)N(C)C(SCCN(C)C)C(=O)N(C)C(CC(C)C)C(=O)N(Cc2ccccc2)C(C(C)C)C(=O)N(C)C(CC(C)C)C(=O)NC(C)C(=O)NC(C)C(=O)N(C)C(CC(C)C)C(=O)N(C)C(CC(C)C)C(=O)N(C)C(C(C)C)C(=O)N1C` [Compound 1, [(R)-2-(N,N-Dimethylamino)ethylthio-Sar]^3-(N-benzyl)-Val^5-cyclosporine A], below 1000 nM.
For the compound `CC=CCC(C)C(O)C1C(=O)NC(CC)C(=O)N(C)C(OC)C(=O)N(C)C(CC(C)C)C(=O)N(CC=CCO)C(C(C)C)C(=O)N(C)C(CC(C)C)C(=O)NC(C)C(=O)NC(C)C(=O)N(C)C(CC(C)C)C(=O)N(C)C(CC(C)C)C(=O)N(C)C(C(C)C)C(=O)N1C` (stereo not drawn) [Compound 15, [Methoxy-Sar]^3-N-[trans-4-hydroxy-but-2-enyl]-Val^5-cyclosporine A], the EC50 in test [1] is below 1000 nM.
Still for that read-out and setting: to `CC=CCC(C)C(O)C1C(=O)NC(CC)C(=O)N(C)C(SC)C(=O)N(C)C(CC(C)C)C(=O)N(CC=CCO)C(C(C)C)C(=O)N(C)C(CC(C)C)C(=O)NC(C)C(=O)NC(C)C(=O)N(C)C(CC(C)C)C(=O)N(C)C(CC(C)C)C(=O)N(C)C(C(C)C)C(=O)N1C` (stereo not drawn) [Compound 14, [Methylthio-Sar]^3-N-[trans-4-hydroxy-but-2-enyl]-Val^5-cyclosporine A] belongs below 1000 nM; to `CC=CCC(C)C(O)C1C(=O)NC(CC)C(=O)N(C)C(OC)C(=O)N(C)C(CC(C)C)C(=O)N(CC=CC)C(C(C)C)C(=O)N(C)C(CC(C)C)C(=O)NC(C)C(=O)NC(C)C(=O)N(C)C(CC(C)C)C(=O)N(C)C(CC(C)C)C(=O)N(C)C(C(C)C)C(=O)N1C` (centres unmarked) [Compound 9, [Methoxy-Sar]^3-(N-but-2-enyl)-Val^5-cyclosporine A], below 1000 nM; to `CC=CCC(C)C(O)C1C(=O)NC(CC)C(=O)N(C)C(OC)C(=O)N(C)C(CC(C)C)C(=O)N(CC=CCN(C)C)C(C(C)C)C(=O)N(C)C(CC(C)C)C(=O)NC(C)C(=O)NC(C)C(=O)N(C)C(CC(C)C)C(=O)N(C)C(CC(C)C)C(=O)N(C)C(C(C)C)C(=O)N1C` (stereo not drawn) [Compound 17, [Methoxy-Sar]^3-N-[trans-4-dimethylamino-but-2-enyl]-Val^5-cyclosporine A], below 1000 nM.
